Experimental data as given in patent publication US20170210751A1, “PRMT5 INHIBITORS AND USES THEREOF” (Epizyme, Inc., priority 2014, published 2017).

The molecules below were run against T1, PRMT5/MEP50 (Homo sapiens, UniProt O14744) (assay: PRMT5 Biochemical Assay (PRMT5/MEP50 enzyme assay on peptide substrate, 3H-SAM Flashplate)). Conditions: PRMT5/MEP50 4 nM, 3H-SAM 75 nM, peptide 40 nM, 30 min preincubation at 25 degrees Celsius.
T1 construct: Flag-PRMT5; made in house; host or cells: Spodoptera frugiperda (SF9) insect cells, baculovirus (pDEST8)
Text: S-adenosylmethionine (SAM), S-adenosylhomocysteine (SAH), bicine, KCl, Tween20, dimethylsulfoxide (DMSO), bovine skin gelatin (BSG), and Tris(2-carboxyethyl)phosphine hydrochloride solution (TCEP) were purchased from Sigma-Aldrich at the highest level of purity possible. ^3H-SAM was purchase from American Radiolabeled Chemicals with a specific activity of 80 Ci/mmol. 384-well streptavidin Flashplates were purchased from PerkinElmer.
Peptide representative of human histone H4 residues 1-15 was synthesized with a C-terminal linker-affinity tag motif and a C-terminal amide cap by 21st Century Biochemicals. The peptide was high high-performance liquid chromatography (HPLC) purified to greater than 95% purity and confirmed by liquid chromatography mass spectrometry (LC-MS). The sequence was Ac-[…][K-Biot]-amide (SEQ ID NO.:3).
Full-length human PRMT5 (NM_006109.3) transcript variant 1 clone was amplified from a fetal brain cDNA library, incorporating flanking 5′ sequence encoding a FLAG tag ([…]) (SEQ ID NO.:4) fused directly to Ala 2 of PRMT5. Full-length human MEP50 (NM_024102) clone was amplified from a human testis cDNA library incorporating a 5′ sequence encoding a 6-histidine tag (MHHHHHH) (SEQ ID NO.:5) fused directly to Arg 2 of MEP50. The amplified genes were sublconed into pENTR/D/TEV (Life Technologies) and subsequently transferred by Gateway™ attL×attR recombination to pDEST8 baculvirus expression vector (Life Technologies).
Recombinant baculovirus and Baculovirus-Infected Insect Cells (BIIC) were generated according to Bac-to-Bac kit instructions (Life Technologies) and Wasilko, 2006, respectively. Protein over-expression was accomplished by infecting exponentially growing Spodoptera frugiperda (SF9) cell culture at 1.2×10^6 cell/ml with a 5000 fold dilution of BIIC stock. Infections were carried out at 27° C. for 72 hours, harvested by centrifugation, and stored at −80° C. for purification.
Flag-PRMT5/6His-MeP50 was eluted with 300 mM Imidazole in the same buffer. The purity of recovered protein was 87%. Reference: Wasilko, D. J. and S. E. Lee: “TIPS: titerless infected-cells preservation and scale-up” Bioprocess J., 5 (2006), pp. 29-32.
General Procedure for PRMT5/MEP50 Enzyme Assays on Peptide Substrates.
The assays were all performed in a buffer consisting of 20 mM Bicine (pH=7.6), 1 mM TCEP, 0.005% BSG, and 0.002% Tween20, prepared on the day of use. Compounds in 100% DMSO (1 ul) were spotted into a polypropylene 384-well V-bottom plates (Greiner) using a Platemate Plus outfitted with a 384-channel head (Thermo Scientific). DMSO (1 ul) was added to Columns 11, 12, 23, 24, rows A-H for the maximum signal control and 1 ul of SAH, a known product and inhibitor of PRMT5/MEP50, was added to columns 11, 12, 23, 24, rows I-P for the minimum signal control. A cocktail (40 ul) containing the PRMT5/MEP50 enzyme and the peptide was added by Multidrop Combi (Thermo-Fisher). The compounds were allowed to incubate with PRMT5/MEP50 for 30 min at 25 degrees Celsius, then a cocktail (10 ul) containing ^3H-SAM was added to initiate the reaction (final volume=51 ul). The final concentrations of the components were as follows: PRMT5/MEP50 was 4 nM, ^3H-SAM was 75 nM, peptide was 40 nM, SAH in the minimum signal control wells was 100 uM, and the DMSO concentration was 1%. The assays were stopped by the addition of non-radioactive SAM (10 ul) to a final concentration of 600 uM, which dilutes the ^3H-SAM to a level where its incorporation into the peptide substrate is no longer detectable. 50 ul of the reaction in the 384-well polypropylene plate was then transferred to a 384-well Flashplate and the biotinylated peptides were allowed to bind to the streptavidin surface for at least 1 hour before being washed three times with 0.1% Tween20 in a Biotek ELx405 plate washer. […]

T1 sequence (O14744 with tags, fused parts or gaps): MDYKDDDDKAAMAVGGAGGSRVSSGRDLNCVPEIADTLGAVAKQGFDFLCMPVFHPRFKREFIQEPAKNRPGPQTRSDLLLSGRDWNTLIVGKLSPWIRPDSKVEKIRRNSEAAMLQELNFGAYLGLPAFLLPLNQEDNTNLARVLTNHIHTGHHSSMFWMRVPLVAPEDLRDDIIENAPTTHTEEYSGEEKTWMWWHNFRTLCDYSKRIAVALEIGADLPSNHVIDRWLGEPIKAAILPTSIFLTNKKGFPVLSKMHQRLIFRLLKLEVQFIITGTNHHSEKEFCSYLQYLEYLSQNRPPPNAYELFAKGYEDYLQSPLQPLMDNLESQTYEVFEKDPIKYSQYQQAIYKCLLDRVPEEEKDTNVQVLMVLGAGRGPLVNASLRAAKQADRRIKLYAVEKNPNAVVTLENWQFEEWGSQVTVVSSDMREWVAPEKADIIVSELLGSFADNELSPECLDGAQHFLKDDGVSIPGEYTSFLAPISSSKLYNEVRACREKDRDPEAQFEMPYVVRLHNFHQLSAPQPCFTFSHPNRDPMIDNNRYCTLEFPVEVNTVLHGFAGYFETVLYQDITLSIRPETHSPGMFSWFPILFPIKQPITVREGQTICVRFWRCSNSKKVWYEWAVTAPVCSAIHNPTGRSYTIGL
T1 sequence (Q9BQA1 with tags, fused parts or gaps partner limits assumed): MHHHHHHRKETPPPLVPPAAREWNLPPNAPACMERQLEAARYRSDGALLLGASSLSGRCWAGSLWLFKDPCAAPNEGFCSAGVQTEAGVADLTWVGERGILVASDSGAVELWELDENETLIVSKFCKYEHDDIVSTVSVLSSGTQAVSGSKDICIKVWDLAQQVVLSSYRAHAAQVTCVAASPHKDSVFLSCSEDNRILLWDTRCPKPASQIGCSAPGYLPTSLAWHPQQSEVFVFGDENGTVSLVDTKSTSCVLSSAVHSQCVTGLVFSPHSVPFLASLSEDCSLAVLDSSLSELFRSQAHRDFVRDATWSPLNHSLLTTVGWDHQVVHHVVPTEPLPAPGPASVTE

`O=C(NC[C@H](O)CN1CCc2sccc2C1)c1cc(NC2COC2)ncn1` [Compound 1-1, (S)—N-(3-(6,7-dihydrothieno[3,2-c]pyridin-5(4H)-yl)-2-hydroxypropyl)-6-(oxetan-3-ylamino)pyrimidine-4-carboxamide] and `CC(=O)N1CC(Nc2cc(C(=O)NC[C@H](O)CN3CCc4sccc4C3)ncn2)C1` [Compound 1-2, (S)-6-((1-acetylazetidin-3-yl)amino)-N-(3-(6,7-dihydrothieno[3,2-c]pyridin-5(4H)-yl)-2-hydroxypropyl)pyrimidine-4-carboxamide] cannot be ordered by IC50: < 100 nM for the first, < 100 nM for the second.

First: CC(=O)N1CCC(Nc2cc(C(=O)NC[C@H](O)CN3CCc4sccc4C3)ncn2)CC1 [Compound 1-3, (S)-6-((1-acetylpiperidin-4-yl)amino)-N-(3-(6,7-dihydrothieno[3,2-c]pyridin-5(4H)-yl)-2-hydroxypropyl)pyrimidine-4-carboxamide]
Second: CC(=O)N1CCC(Nc2cc(C(=O)NC[C@H](O)CN3CCc4scnc4C3)ncn2)CC1 [Compound 1-32]
The IC50 of the first is lower: < 100 nM for the first, 1000 to 10000 nM for the second.

First: O=C(COc1cccc2cccnc12)NCC(O)CN1CCc2sccc2C1 (stereo not shown) [Compound 1-4, N-(2-hydroxy-3-{4H,5H,6H,7H-thieno[3,2-c]pyridin-5-yl}propyl)-2-(quinolin-8-yloxy)acetamide]
Second: O=C(COc1cccc2cccnc12)NCC(O)CN1CCc2ncccc2C1 (stereo not shown) [Compound 2-6, N-[2-hydroxy-3-(5,6,7,8-tetrahydro-1,6-naphthyridin-6-yl)propyl]-2-(quinolin-8-yloxy)acetamide]
The IC50 of the first is lower: < 100 nM for the first, 1000 to 10000 nM for the second.

`CC(=O)N1CCC(Nc2cc(C(=O)NC[C@H](O)CN3CCc4nc(C)sc4C3)ncn2)CC1` [Compound 1-7, (S)-6-((1-acetylpiperidin-4-yl)amino)-N-(2-hydroxy-3-(2-methyl-6,7-dihydrothiazolo[5,4-c]pyridin-5(4H)-yl)propyl)pyrimidine-4-carboxamide] and `CC(=O)N1CCC(Nc2cc(C(=O)NC[C@H](O)CN3CCc4sc(C)nc4C3)ncn2)CC1` [Compound 1-36] fall in the same range of IC50: 1000 to 10000 nM for the first, 1000 to 10000 nM for the second.

`Cc1nc2c(s1)CN(C[C@@H](O)CNC(=O)c1cc(NC3COC3)ncn1)CC2` [Compound 1-8, (S)—N-(2-hydroxy-3-(2-methyl-6,7-dihydrothiazolo[5,4-c]pyridin-5(4H)-yl)propyl)-6-(oxetan-3-ylamino)pyrimidine-4-carboxamide] and `Nc1nc2c(s1)CN(C[C@@H](O)CNC(=O)c1cc(NC3COC3)ncn1)CC2` [Compound 1-23] cannot be ordered by IC50: > 10000 nM for the first, > 10000 nM for the second.

Compared with `Cc1csc2c1CN(C[C@@H](O)CNC(=O)c1cc(NC3COC3)ncn1)CC2` [Compound 1-11, (S)—N-(2-hydroxy-3-(3-methyl-6,7-dihydrothieno[3,2-c]pyridin-5(4H)-yl)propyl)-6-(oxetan-3-ylamino)pyrimidine-4-carboxamide], `CC(=O)N1CC(Nc2cc(C(=O)NC[C@H](O)CN3CCc4scc(C)c4C3)ncn2)C1` [Compound 1-12, (S)-6-((1-acetylazetidin-3-yl)amino)-N-(2-hydroxy-3-(3-methyl-6,7-dihydrothieno[3,2-c]pyridin-5(4H)-yl)propyl)pyrimidine-4-carboxamide] is lower in IC50: 101 to 1000 nM for the first, < 100 nM for the second.

`CC(=O)N1CCC(Nc2cc(C(=O)NC[C@H](O)CN3CCc4scc(C)c4C3)ncn2)CC1` [Compound 1-13, (S)-6-((1-acetylpiperidin-4-yl)amino)-N-(2-hydroxy-3-(3-methyl-6,7-dihydrothieno[3,2-c]pyridin-5(4H)-yl)propyl)pyrimidine-4-carboxamide] and `CC(=O)N1CCC(Nc2cc(C(=O)NC[C@H](O)CN3CCc4scc(C)c4C3)ccn2)CC1` [Compound 1-14, (S)-2-((1-acetylpiperidin-4-yl)amino)-N-(2-hydroxy-3-(3-methyl-6,7-dihydrothieno[3,2-c]pyridin-5(4H)-yl)propyl)isonicotinamide] cannot be ordered by IC50: < 100 nM for the first, < 100 nM for the second.

`O=C(NC[C@H](O)CN1CCc2ncsc2C1)c1cc(NC2COC2)ncn1` [Compound 1-16, (S)—N-(3-(6,7-dihydrothiazolo[5,4-c]pyridin-5(4H)-yl)-2-hydroxypropyl)-6-(oxetan-3-ylamino)pyrimidine-4-carboxamide] and `CC(=O)N1CC(Nc2cc(C(=O)NC[C@H](O)CN3CCc4ncsc4C3)ncn2)C1` [Compound 1-17, (S)-6-((1-acetylazetidin-3-yl)amino)-N-(3-(6,7-dihydrothiazolo[5,4-c]pyridin-5(4H)-yl)-2-hydroxypropyl)pyrimidine-4-carboxamide] cannot be ordered by IC50: > 10000 nM for the first, > 10000 nM for the second.

`CC(=O)N1CCC(Nc2cc(C(=O)NC[C@H](O)CN3CCc4ncsc4C3)ncn2)CC1` [Compound 1-18, (S)-6-((1-acetylpiperidin-4-yl)amino)-N-(3-(6,7-dihydrothiazolo[5,4-c]pyridin-5(4H)-yl)-2-hydroxypropyl)pyrimidine-4-carboxamide] and `CC(=O)N1CCC(Nc2cc(C(=O)NC[C@H](O)CN3CCc4nc(N)sc4C3)ncn2)CC1` [Compound 1-38] fall in the same range of IC50: 1000 to 10000 nM for the first, 1000 to 10000 nM for the second.

`CC(=O)N1CCC(Nc2cc(C(=O)NC[C@H](O)CN3CCc4ncsc4C3)ccn2)CC1` [Compound 1-19, (S)-2-((1-acetylpiperidin-4-yl)amino)-N-(3-(6,7-dihydrothiazolo[5,4-c]pyridin-5(4H)-yl)-2-hydroxypropyl)isonicotinamide] and `CC(=O)N1CCC(Nc2cc(C(=O)NC[C@H](O)CN3CCc4scnc4C3)ccn2)CC1` [Compound 1-30] fall in the same range of IC50: 1000 to 10000 nM for the first, 1000 to 10000 nM for the second.

First: Nc1nc2c(s1)CCN(C[C@@H](O)CNC(=O)c1cc(NC3COC3)ncn1)C2 [Compound 1-20, (S)—N-(3-(2-amino-6,7-dihydrothiazolo[4,5-c]pyridin-5(4H)-yl)-2-hydroxypropyl)-6-(oxetan-3-ylamino)pyrimidine-4-carboxamide]
Second: CC(=O)N1CC(Nc2cc(C(=O)NC[C@H](O)CN3CCc4sc(N)nc4C3)ncn2)C1 [Compound 1-28]
The IC50 of the first is higher: > 10000 nM for the first, 1000 to 10000 nM for the second. The second is the more potent here.

`CC(=O)N1CC(Nc2cc(C(=O)NC[C@H](O)CN3CCc4sc(C)nc4C3)ncn2)C1` [Compound 1-27] and `CC(=O)N1CC(Nc2cc(C(=O)NC[C@H](O)CN3CCc4nc(N)sc4C3)ncn2)C1` [Compound 1-29] fall in the same range of IC50: 1000 to 10000 nM for the first, 1000 to 10000 nM for the second.

First: CC(=O)N1CCC(Nc2cc(C(=O)NC[C@H](O)CN3CCc4sc(C)nc4C3)ccn2)CC1 [Compound 1-33]
Second: CC(=O)N1CCC(Nc2cc(C(=O)NC[C@H](O)CN3CCc4sc(N)nc4C3)ccn2)CC1 [Compound 1-34]
The IC50 of the first is higher: 1000 to 10000 nM for the first, 101 to 1000 nM for the second. The second is the more potent here.

First: CC(=O)N1CCC(Nc2cc(C(=O)NC[C@H](O)CN3CCc4nc(N)sc4C3)ccn2)CC1 [Compound 1-35]
Second: CC(=O)N1CCC(Nc2cc(C(=O)NC[C@H](O)CN3CCc4sc(N)nc4C3)ncn2)CC1 [Compound 1-37]
The IC50 of the first is lower: 101 to 1000 nM for the first, 1000 to 10000 nM for the second. The first is the more potent here.

`O=C(COc1cccc2cccnc12)NCC(O)CN1CCc2cccnc2C1` (stereo not shown) [Compound 2-5, N-[2-hydroxy-3-(5,6,7,8-tetrahydro-1,7-naphthyridin-7-yl)propyl]-2-(quinolin-8-yloxy)acetamide] and `O=C(COc1cccc2cccnc12)NCC(O)CN1CCc2cnccc2C1` (stereo not shown) [Compound 2-7, N-[2-hydroxy-3-(1,2,3,4-tetrahydro-2,6-naphthyridin-2-yl)propyl]-2-(quinolin-8-yloxy)acetamide] fall in the same range of IC50: 1000 to 10000 nM for the first, 1000 to 10000 nM for the second.

In the case of `O=C(COc1cccc2cccnc12)NCC(O)CN1CCc2ccncc2C1` (stereo not shown) [Compound 2-8, N-[2-hydroxy-3-(1,2,3,4-tetrahydro-2,7-naphthyridin-2-yl)propyl]-2-(quinolin-8-yloxy)acetamide], the IC50 is reported as 1000 to 10000 nM.
